Experimental data published in patent EP0585371B1, “AROMATIC OLIGOMERIC COMPOUNDS USEFUL AS MIMICS OF BIOACTIVE MACROMOLECULES” (RHONE-POULENC RORER INTERNATIONAL (HOLDINGS) INC., priority 1991, dated 1992).

How the values were obtained:
[1] = target: T1, ESb mouse lymphoma heparanase (Mus musculus, UniProt Q6YGZ1); assay: Inhibition of heparanase activity (degradation of labeled ECM heparan sulfate); type: biochemical; conditions: 24 hours incubation with labeled ECM
T1 construct: endogenous in cells; host or cells: ESb mouse lymphoma cells
T1 sequence (Q6YGZ1 28-535): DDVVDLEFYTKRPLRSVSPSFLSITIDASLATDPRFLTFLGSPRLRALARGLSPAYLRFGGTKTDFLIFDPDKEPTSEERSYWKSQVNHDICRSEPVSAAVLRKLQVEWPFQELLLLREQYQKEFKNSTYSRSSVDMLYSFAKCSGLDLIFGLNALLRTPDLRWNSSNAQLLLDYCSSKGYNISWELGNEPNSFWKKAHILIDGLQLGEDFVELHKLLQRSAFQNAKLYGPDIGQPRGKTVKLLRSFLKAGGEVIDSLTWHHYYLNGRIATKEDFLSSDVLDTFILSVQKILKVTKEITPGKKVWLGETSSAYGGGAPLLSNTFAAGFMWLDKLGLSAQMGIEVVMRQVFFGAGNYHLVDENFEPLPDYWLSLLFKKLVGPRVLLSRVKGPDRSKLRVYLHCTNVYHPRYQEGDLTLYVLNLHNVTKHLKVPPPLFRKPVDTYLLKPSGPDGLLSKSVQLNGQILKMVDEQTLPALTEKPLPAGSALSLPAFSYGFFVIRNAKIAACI
Method: Heparanase is an endoglucuronidase capable of degrading […] (HS) at specific intrachain sites.
The ability of compounds of the present invention to inhibit lymphomacell derived heparanase is tested in the assay system described by Vlodavsky et al., Cancer Research 43, 2704-2711 (1983). […] labeled ECM is incubated for 24 hours with ESb mouse lymphoma heparanase in the presence of various concentrations of the oligomers tested. Degradation of the HS is followed by gel filtration of the supematants. Heparanase activity is expressed as the total amount of labeled low-molecular-weight fragments released from the EMC substrate.

[2] = tested on: Vascular smooth muscle cells (VSMC); assay: Smooth Muscle Cell DNA Synthesis Assay (3H-thymidine incorporation in response to PDGF); type: cell-based, swine; conditions: inhibition of incorporation of 3H-thymidine in response to PDGF (9 ng/ml)
Method: Vascular smooth muscle cells (VSMC) are isolated from swine coronaries obtained from swine hearts (Hatfield Meat Packing, Hatfield, PA) by enzyme dissociation as described by Gunther, et al., in J. Cell. Biol. 92, 289 (1982). Hyaluronidase (0.5 mg/ml) is added to facilitate dispersal. Cells are maintained in Earle's modified minimal essential medium (EMEM) with D-valine substituted for L-valine, supplemented with Hepes (10 mM), fetal bovine serum (FBS) (10%), penicillin (100 U/ml) and streptomycin ( 100 µg/ml).
The VSMC (passage 2) are plated at a density of 3 x 10^4 /cm2 (1x10^4 cells/well of 96 well tray) and after 48 hours of normal growth are arrested by replacement of above media with serum-free media for 48 hours consisting of: EMEM: Hams F12 (1:1), insulin, 5 µg/ml; transferrin, 35 µg/ml; selenite, 5 ng/ml; antibiotics and buffer (as above). The oligomer of the present invention to be tested (.01-10 µM) is added 2 hours prior to addition of porcine platelet derived growth factor (Research and Diagonostics, Minneapolis, MN), or FBS,in fresh serum-free media. Twenty-four hours later the oligomers are again added preceding addition of growth factors by 2 hours. […]
The VSMC are pulsed (5 hours) with ^3H-thymidine (Amersham, Arlington Heights, IL) (1 µCi/well of a 96 well plate; 42 Ci/mmole) added 15-18 hours after the last dose of growth factor. DNA synthesis is determined in NaOH extraction of ethanol/ether fixed cells as reported by Nemecek, et al., PNAS 83, 674 (1986). The cells are washed with phosphate bufferred saline (200 µl/well of 96-well tray. The cells are incubated with trichloroacetic acid (TCA) (10%, 200 ul) for 5 minutes to remove cytoplasmic label. After a rapid wash with cold 10% TCA, cells are fixed with ethanol/ether (2:1, 200 µl/well 5 min) and dried. The labeled DNA is extracted with 0.5 N NaOH (200 µl/well 30 min incubation, room temperature). The extracted DNA is neutralized (0.5 N HCI) and counted by liquid scintillation.
Statistical evaluation is as reported by Bilder, et al., Am. […] IC50 values are calculated by linear regression (RPL of RS1) from % inhibition of a minimum of 3 log fold dilutions of oligomers in the presence of PDGF (9 ng/ml) which give 70-80% of a maximal PDGF response. […] Percent inhibition is calculated by comparing the effect of PDGF alone (vehicle treated cultures + PDGF minus vehicle treated cultures without PDGF) to the effect of oligomers (oligomer + PDGF minus oligomer alone) and divided by the effect of PDGF times 100. i.e., = % inhibition = ((ΔVehicle + PDGF) - (Δoligomer + PDGF)/(Δvehicle + PDGF)) x 100.

[3] = tested on: human fixed thrombin activated platelets; assay: Platelet aggregation inhibition (fibrinogen-induced); type: cell-based; conditions: human fibrinogen added
Method: The method for measuring platelet aggregation inhibition is essentially that of Ruggeri, et al., Proc. Natl. Acad. Sci. USA, 83, 5708-5712 (1986), using formalin-fixed platelets as prepared by Plow, et al., Proc. Natl. Acad. Sci. USA, 79, 3711-3715 (1982). A given amount of the compound of the present invention or other compound to be tested (10 to 100 µl of a 1 mg/ml solution) is incubated at 37°C with 400 µl of human fixed thrombin activated platelets for 2 minutes. 12.5 µl of human fibrinogen solution is added and aggregation is monitored using a platelet aggregation profiler (Model PAP-4). Controls consist of fibrinogen added to incubated platelets and the resulting aggregation is considered as 100%. Percent inhibition in the presence of a given concentration of test compound versus concentration of the compound is plotted and the concentration required to give 50% inhibition (IC50) is determined.

normal pooled plasma = assay: Anticoagulation activity, Activated Partial Thromboplastin Time (APTT) test; conditions: concentration required to double clotting time
Method: The following test measures anticoagulant activity of the oligomers of the present invention and utilizes the Activated Partial Thromboplastin Time (APTT) test, with the following procedures.
To an assay cuvette is added 100 µl of normal pooled plasma (George King Biomedical Inc., Kansas) and […] of a solution containing the test compound in aqueous 50 mM Tris hydrochloride at pH 7.5 (0.2 mg of sample in one ml buffer). The sample is placed in a MLA coagulation timer which automatically maintains the sample at 37°C for 2.5 minutes, 100 µl of actin activated cephaloplastin reagent is injected, kept 5 minutes, 100 µl of 35 mM CaCI is injected, and clot formation is determined photometrically and the clotting time recorded. Each example is examined at a variety of concentrations, generally from about .025 mg/ml to about 1 mg/ml, and the clotting times are graphed as a function of concentration. From the graphic results, the concentration required to double clotting time (ICDCT) is calculated by linear interpolation.

For `Cc1cc(O)c(Cc2cc(O)c(Cc3cc(O)c(Cc4cc(O)c(Cc5cc(O)c(Cc6cc(O)c(Cc7cc(O)c(Cc8cc(O)c(Cc9cc(O)c(Cc%10cc(O)c(Cc%11cc(O)c(Cc%12cc(O)c(Cc%13cc(O)c(Cc%14cc(O)c(Cc%15cc(O)c(Cc%16cc(O)ccc%16CCC(=O)O)cc%15CCC(=O)O)cc%14CCC(=O)O)cc%13CCC(=O)O)cc%12CCC(=O)O)cc%11CCC(=O)O)cc%10CCC(=O)O)cc9CCC(=O)O)cc8CCC(=O)O)cc7CCC(=O)O)cc6CCC(=O)O)cc5CCC(=O)O)cc4CCC(=O)O)cc3CCC(=O)O)cc2CCC(=O)O)cc1CCC(=O)O` [Ex 2, Step 26], the “% Inhibition of Heparanase Activity (5µg/ml)” value [1] was 68%, the IC50 [2] was 40 nM and the “Platelet Aggregation IC50” value [3] was 250 µg/mL. For the same molecule, the “APTT ICDCT” value (normal pooled plasma) was 35 µg/mL.

In the case of `O=C(O)COc1cc(Cc2cc(OCc3ccccc3)c(Cc3cc(OCc4ccccc4)c(Cc4cc(OCc5ccccc5)c(Cc5cc(OCc6ccccc6)c(Cc6cc(O)ccc6OCC(=O)O)cc5OCC(=O)O)cc4OCC(=O)O)cc3OCC(=O)O)cc2OCC(=O)O)c(OCc2ccccc2)cc1CO` [Ex 19, 4-benzyloxy-5-[4-[4-[4-[4-[[2-carboxymethyloxy-5-hydroxy]benzyl]-[5-benzyloxy-2-carboxymethyloxy]benzyl]-[5-benzyloxy-2-carboxymethyloxy]benzyl]-[5-benzyloxy-2-carboxymethyloxy]benzyl]-[5-benzyloxy-2-carboxymethyloxy]benzyl]-2-hydroxymethylphenoxyacetic acid], the IC50 [2] is reported as 300 nM and the “APTT ICDCT” value (normal pooled plasma) is reported as 345 µg/mL.

For `CCc1cc(OCC(=O)O)cc(Cc2cc(OCC(=O)O)cc(Cc3cc(OCC(=O)O)cc(Cc4cc(OCC(=O)O)cc(Cc5cc(OCC(=O)O)cc(Cc6cc(OCC(=O)O)cc(Cc7cc(OCC(=O)O)cc(Cc8cc(OCC(=O)O)ccc8OC)c7OC)c6OC)c5OC)c4OC)c3OC)c2OC)c1OC` [Ex 23, 5-[3-[3-[3-[3-[3-[3-[[5-carboxymethyloxy-2-methoxy]benzyl]-[5-carboxymethyloxy-2-methoxy]benzyl]-[5-carboxymethyloxy-2-methoxy]benzyl]-[5-carboxymethyloxy-2-methoxy]benzyl]-[5-carboxymethyloxy-2-methoxy]benzyl]-[5-carboxymethyloxy-2-methoxy]benzyl]-[5-carboxymethyloxy-2-methoxy]benzyl]-3-ethyl-4-methoxyphenoxyacetic acid], the IC50 [2] was 300 nM and the “APTT ICDCT” value (normal pooled plasma) was 300 µg/mL.
